Test results reported in the CheMixHub ionic liquid set.

Test: xn = mol fraction of the nth substance listed
Details: 100 kPa

OC[C@H]1O[C@H](O[C@H]2[C@H](O)[C@@H](O)C(O)O[C@@H]2CO)[C@H](O)[C@@H](O)[C@@H]1O (some centres not stated) + CCCC[n+]1ccn(C)c1.F[P-](F)(F)(F)(F)F + O
viscosity [mPa·s]
Details | 293.15 K | 298.15 K | 303.15 K
x2 = 0, x1 = 0.0001791 | 1.019 | 0.9 | 0.807
x2 = 0, x1 = 0.0005383 | 1.027 | 0.911 | 0.816
x2 = 0, x1 = 0.0008971 | 1.038 | 0.922 | 0.827
x2 = 0, x1 = 0.001255 | 1.049 | 0.931 | 0.832
x2 = 0, x1 = 0.001615 | 1.059 | 0.94 | 0.84
x2 = 0.0001835, x1 = 0.001259 | 1.059 | 0.947 | 0.86
x2 = 0.0001835, x1 = 0.00162 | 1.07 | 0.956 | 0.866
x2 = 0.0001836, x1 = 0.0008988 | 1.049 | 0.937 | 0.851
x2 = 0.0001837, x1 = 0.0001798 | 1.03 | 0.92 | 0.834
x2 = 0.0001837, x1 = 0.0005398 | 1.037 | 0.926 | 0.841
x2 = 0.0005376, x1 = 0.001627 | 1.084 | 0.97 | 0.873
x2 = 0.0005378, x1 = 0.001265 | 1.074 | 0.96 | 0.864
x2 = 0.000538, x1 = 0.0009039 | 1.064 | 0.949 | –
x2 = 0.0005382, x1 = 0.0005419 | 1.052 | 0.939 | –
x2 = 0.0005384, x1 = 0.0001809 | 1.043 | 0.93 | –
x2 = 0.0008951, x1 = 0.001637 | 1.098 | 0.976 | –
x2 = 0.0008955, x1 = 0.001273 | 1.089 | 0.967 | –
x2 = 0.0008958, x1 = 0.0009101 | 1.08 | 0.959 | –
x2 = 0.0008961, x1 = 0.0005458 | 1.064 | 0.946 | –
x2 = 0.0008964, x1 = 0.0001816 | 1.057 | 0.938 | –
x2 = 0.00126, x1 = 0.0009162 | 1.084 | 0.969 | –
x2 = 0.00126, x1 = 0.001282 | 1.096 | 0.979 | –
x2 = 0.00126, x1 = 0.001648 | 1.106 | 0.989 | –
x2 = 0.001261, x1 = 0.000183 | 1.061 | 0.948 | –
x2 = 0.001261, x1 = 0.0005491 | 1.071 | 0.959 | –
